From patent US20080194546A1, “Pyrido-, Pyrazo- and Pyrimido-Pyrimidine Derivatives as mTOR Inhibitors” (KuDOS Pharmaceuticals Limited, priority 2005, published 2008)

target: T1, mTOR (Homo sapiens, UniProt P42345); assay: Biological Assay: mTOR enzyme activity, mTOR immunoprecipitated from HeLa cell cytoplasmic extract, recombinant PHAS-1 as substrate; assay type: biochemical; conditions: Biological Assay, upper bounds; read-out: IC50 values against mTOR
T1 construct: mTOR protein was isolated from HeLa cell cytoplasmic extract by immunoprecipitation; endogenous in cells; host or cells: HeLa cell cytoplasmic extract (immunoprecipitate)

IC50	Compound
< 10 µM	CC(=O)Nc1ccc2c(N3CCOCC3)nc(N3C[C@@H](C)O[C@@H](C)C3)nc2n1 [Example 5f]
< 0.1 µM	C[C@@H]1CN(c2nc(N3CCOCC3)c3ccc(-c4ccc(C#N)cc4)nc3n2)C[C@H](C)O1 [Example 1n]
< 0.1 µM	COc1ccc(-c2ccc3c(N4CCOCC4)nc(N(CCO)CCO)nc3n2)cc1CO [Example 1o]
< 10 µM	C[C@@H]1CN(c2nc(N3CCOCC3)c3ccc(-c4ccc5c(c4)OCCCO5)nc3n2)C[C@H](C)O1 [Example 1ba]
< 10 µM	Cc1nnc(Nc2ccc3c(N4CCOCC4)nc(N4C[C@@H](C)O[C@@H](C)C4)nc3n2)o1 [Example 2ao]
< 1 µM	C[C@@H]1CN(c2nc(N3CCOCC3)c3ccc(Nc4nccc5cccnc45)nc3n2)C[C@H](C)O1 [Example 2av]
< 1 µM	C[C@@H]1CN(c2nc(N3CCOCC3)c3ccc(Nc4nccc(-c5ccco5)n4)nc3n2)C[C@H](C)O1 [Example 2ax]
< 10 µM	C[C@@H]1CN(c2nc(N3CCOCC3)c3ccc(NC(=O)c4nc[nH]c4N)nc3n2)C[C@H](C)O1 [Example 5g]
< 1 µM	C[C@@H]1CN(c2nc(N3CCOCC3)c3ccc(Nc4ccsc4)nc3n2)C[C@H](C)O1 [Example 2aq]
< 1 µM	COc1ccc(-c2ccc3c(N4CCOCC4)nc(N4C[C@@H](C)O[C@@H](C)C4)nc3n2)cc1F [Example 1w]
< 1 µM	Cc1cc(-c2ccc3c(N4CCOCC4)nc(N4C[C@@H](C)O[C@@H](C)C4)nc3n2)cs1 [Example 1y]
< 0.1 µM	C[C@@H]1CN(c2nc(N3CCOCC3)c3ccc(Nc4ccncc4)nc3n2)C[C@H](C)O1 [Example 2ba]
< 0.1 µM	C[C@@H]1CN(c2nc(N3CCOCC3)c3ccc(-c4cccc(CO)c4)nc3n2)C[C@H](C)O1 [Example 1q]
< 0.1 µM	COc1ccc(-c2ccc3c(N4C[C@@H](C)O[C@@H](C)C4)nc(N4CCOC[C@@H]4C)nc3n2)cc1CO [Example 1p]
< 1 µM	COc1ccc(-c2ccc3c(N4CCOCC4)nc(N4CCCC[C@@H]4C)nc3n2)cc1 [Example 1u]
< 10 µM	C[C@@H]1CN(c2nc(N3CCOCC3)c3ccc(-c4cccc5cccnc45)nc3n2)C[C@H](C)O1 [Example 1ay]
< 10 µM	C[C@@H]1CN(c2nc(N3CCOCC3)c3ccc(Nc4cnccn4)nc3n2)C[C@H](C)O1 [Example 2bc]
< 1 µM	Cc1cnccc1Nc1ccc2c(N3CCOCC3)nc(N3C[C@@H](C)O[C@@H](C)C3)nc2n1 [Example 2t]
< 1 µM	CSc1nc2ccc(Nc3ccc4c(N5CCOCC5)nc(N5C[C@@H](C)O[C@@H](C)C5)nc4n3)cc2s1 [Example 2ad]
< 1 µM	C[C@@H]1CN(c2nc(N3CCOCC3)c3ccc(Nc4ccc(-n5cccc5)cc4)nc3n2)C[C@H](C)O1 [Example 2q]
< 1 µM	C[C@@H]1CN(c2nc(N3CCOCC3)c3ccc(Nc4ccc(Cl)cc4)nc3n2)C[C@H](C)O1 [Example 2k]
< 10 µM	C[C@@H]1CN(c2nc(N3CCOCC3)c3ccc(NC4CCC4)nc3n2)C[C@H](C)O1 [Example 2ai]
< 1 µM	C[C@@H]1CN(c2nc(N3CCOCC3)c3ccc(Nc4ccnc(-c5cccnc5)n4)nc3n2)C[C@H](C)O1 [Example 2aw]
< 1 µM	Cc1cccc(-c2ccc3c(N4CCOCC4)nc(N4C[C@@H](C)O[C@@H](C)C4)nc3n2)c1 [Example 1aj]
< 1 µM	C[C@@H]1CN(c2nc(N3CCOCC3)c3ccc(-c4cccc5ccccc45)nc3n2)C[C@H](C)O1 [Example 1an]

IC50	Compound
< 10 µM	C[C@@H]1CN(c2nc(N3CCOCC3)c3ccc(NC(=O)CSc4ccccc4)nc3n2)C[C@H](C)O1 [Example 5d]
< 1 µM	C[C@@H]1CN(c2nc(N3CCOCC3)c3ccc(-c4ccncc4)nc3n2)C[C@H](C)O1 [Example 1ac]
< 1 µM	C[C@@H]1CN(c2nc(N3CCOCC3)c3ccc(N)nc3n2)C[C@H](C)O1 [Example 3a]
< 10 µM	C[C@@H]1CN(c2nc(N3CCOCC3)c3ccc(Nc4cccc5cnccc45)nc3n2)C[C@H](C)O1 [Example 2f]
< 1 µM	C[C@@H]1CN(c2nc(N3CCOCC3)c3ccc(-c4cnn(C)c4)nc3n2)C[C@H](C)O1 [Example 1ad]
< 1 µM	C[C@@H]1CN(c2nc(N3CCOCC3)c3ccc(Nc4cccnc4)nc3n2)C[C@H](C)O1 [Example 2az]
< 1 µM	Cc1ccc(Nc2ccc3c(N4CCOCC4)nc(N4C[C@@H](C)O[C@@H](C)C4)nc3n2)nc1 [Example 2bd]
< 1 µM	CC(=O)c1ccc(-c2ccc3c(N4CCOCC4)nc(N4C[C@@H](C)O[C@@H](C)C4)nc3n2)cc1 [Example 1aq]
< 1 µM	Cc1ccc(-c2ccc3c(N4CCOCC4)nc(N4CCCC[C@@H]4C)nc3n2)cc1 [Example 1s]
< 10 µM	C[C@@H]1CN(c2nc(N3CCOCC3)c3ccc(Nc4nc(-c5ccccc5Cl)cs4)nc3n2)C[C@H](C)O1 [Example 2s]
< 1 µM	C[C@@H]1CN(c2nc(N3CCOCC3)c3ccc(Nc4ccc(Cl)cc4O)nc3n2)C[C@H](C)O1 [Example 2aa]
< 1 µM	C[C@@H]1CN(c2nc(N3CCOCC3)c3ccc(-c4ccc(Cl)s4)nc3n2)C[C@H](C)O1 [Example 1al]
< 1 µM	C[C@@H]1CN(c2nc(N3CCOCC3)c3ccc(Nc4ccncn4)nc3n2)C[C@H](C)O1 [Example 2bb]
< 10 µM	C[C@@H]1CN(c2nc(N3CCOCC3)c3ccc(Nc4nc5cncnc5[nH]4)nc3n2)C[C@H](C)O1 [Example 2au]
< 10 µM	CCCCOc1ccc2c(N3CCOCC3)nc(N3C[C@@H](C)O[C@@H](C)C3)nc2n1 [Example 7]
< 1 µM	COc1ccc(/C=C/c2ccc(Nc3ccc4c(N5CCOCC5)nc(N5C[C@@H](C)O[C@@H](C)C5)nc4n3)cc2)cc1 [Example 2p]
< 1 µM	C[C@@H]1CN(c2nc(N3CCOCC3)c3ccc(-c4ccc(OC(F)(F)F)cc4)nc3n2)C[C@H](C)O1 [Example 1ao]
< 10 µM	C[C@@H]1CN(c2nc(N3CCOCC3)c3ccc(Nc4cccc(C(=O)c5ccccc5)c4)nc3n2)C[C@H](C)O1 [Example 2m]
< 10 µM	C[C@@H]1CN(c2nc(N3CCOCC3)c3ccc(Nc4ccc(C5SCCS5)cc4)nc3n2)C[C@H](C)O1 [Example 2ae]
< 1 µM	CC(=O)Nc1cccc(-c2ccc3c(N4CCOCC4)nc(N4C[C@@H](C)O[C@@H](C)C4)nc3n2)c1 [Example 1ab]
< 1 µM	C[C@@H]1CN(c2nc(N3CCOCC3)c3ccc(Nc4ccccc4)nc3n2)C[C@H](C)O1 [Example 2a]
< 10 µM	C[C@@H]1CN(c2nc(N3CCOCC3)c3ccc(Nn4cnnc4)nc3n2)C[C@H](C)O1 [Example 2r]
< 1 µM	COc1ccc(-c2ccc3c(N4CCOCC4)nc(N4C[C@@H](C)O[C@@H](C)C4)nc3n2)cc1OC [Example 1ah]
< 1 µM	COC(=O)c1cc(Nc2ccc3c(N4CCOCC4)nc(N4C[C@@H](C)O[C@@H](C)C4)nc3n2)cn1C [Example 2as]
< 10 µM	C[C@@H]1CN(c2nc(N3CCOCC3)c3ccc(N(C)C)nc3n2)C[C@H](C)O1 [Example 2d]

IC50	Compound
< 1 µM	C[C@@H]1CN(c2nc(N3CCOCC3)c3ccc(-c4ccoc4)nc3n2)C[C@H](C)O1 [Example 1aa]
< 10 µM	Cc1cc(Nc2ccc3c(N4CCOCC4)nc(N4C[C@@H](C)O[C@@H](C)C4)nc3n2)no1 [Example 2x]
< 10 µM	CC1CCC(Nc2ccc3c(N4CCOCC4)nc(N4C[C@@H](C)O[C@@H](C)C4)nc3n2)CC1 (stereo partly shown) [Example 2al]
< 10 µM	C[C@@H]1CN(c2nc(N3CCOCC3)c3ccc(-c4cncnc4)nc3n2)C[C@H](C)O1 [Example 1az]
< 0.1 µM	CCC1CCCCN1c1nc(N2CCOCC2)c2ccc(-c3ccc(OC)c(CO)c3)nc2n1 (stereo not shown) [Example 1bc]
< 1 µM	C[C@@H]1CN(c2nc(N3CCOCC3)c3ccc(Nc4ccc(C#N)cc4)nc3n2)C[C@H](C)O1 [Example 2h]
< 10 µM	CC1CCCCN1c1nc(N2CCOCC2)c2ccc(-c3ccccc3)nc2n1 (stereo not shown) [1 h]
< 10 µM	Cc1cc([N+](=O)[O-])cc(Cl)c1Nc1ccc2c(N3CCOCC3)nc(N3C[C@@H](C)O[C@@H](C)C3)nc2n1 [Example 2l]
< 0.1 µM	Cc1ccc(-c2ccc3c(N4CCOCC4)nc(N4C[C@@H](C)O[C@@H](C)C4)nc3n2)cc1 [Example 1d]
< 10 µM	C[C@@H]1CN(c2nc(N3CCOCC3)c3ccc(-c4ccc5c(c4)OCO5)nc3n2)C[C@H](C)O1 [Example 1ak]
< 10 µM	C[C@@H]1CN(c2nc(N3CCOCC3)c3ccc(Nc4cccc5cccnc45)nc3n2)C[C@H](C)O1 [Example 2o]
< 1 µM	C[C@@H]1CN(c2nc(N3CCOCC3)c3ccc(-c4cccc(C(N)=O)c4)nc3n2)C[C@H](C)O1 [Example 1ai]
< 1 µM	COCCN(CCOC)c1nc(N2CCOCC2)c2ccc(-c3ccc(OC)c(CO)c3)nc2n1 [Example 1af]
< 1 µM	C[C@@H]1CN(c2nc(N3CCOCC3)c3ccc(-c4ccc(C(=O)O)s4)nc3n2)C[C@H](C)O1 [Example 1ar]
< 1 µM	C[C@H]1CCCCN1c1nc(N2CCOCC2)c2ccc(Nc3ccccc3)nc2n1 [Example 2i]
< 1 µM	C[C@@H]1CN(c2nc(N3CCOCC3)c3ccc(Nc4cc(F)c(F)cc4[N+](=O)[O-])nc3n2)C[C@H](C)O1 [Example 2ac]
< 1 µM	COC(=O)c1ccc(Nc2ccc3c(N4CCOCC4)nc(N4C[C@@H](C)O[C@@H](C)C4)nc3n2)cc1 [Example 2g]
< 1 µM	C[C@@H]1CN(c2nc(N3CCOCC3)c3ccc(-c4cccc(N5CCOCC5)c4)nc3n2)C[C@H](C)O1 [Example 1as]
< 1 µM	C/C=C/C(=O)Nc1ccc2c(N3CCOCC3)nc(N3C[C@@H](C)O[C@@H](C)C3)nc2n1 [Example 5c]
< 10 µM	C[C@@H]1CN(c2nc(N3CCOCC3)c3ccc(NC4CCN(C)CC4)nc3n2)C[C@H](C)O1 [Example 2w]
< 10 µM	C=CCNc1ccc2c(N3CCOCC3)nc(N3C[C@@H](C)O[C@@H](C)C3)nc2n1 [Example 2am]
< 10 µM	Cc1ccc(-n2nc(C)cc2Nc2ccc3c(N4CCOCC4)nc(N4C[C@@H](C)O[C@@H](C)C4)nc3n2)cc1 [Example 2y]
< 10 µM	C=C(C)CNc1ccc2c(N3CCOCC3)nc(N3C[C@@H](C)O[C@@H](C)C3)nc2n1 [Example 2v]
